Measured values from the supplement of paper PMC8671470.

Experiments:
Conditions in all cases: 72 h
LAMA-84 = system: LAMA-84
In short: (§1)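 For the IC50, dose–response curves were fitted with a log-logistic model. The data came from fifteen myeloid leukaemia cell lines grown in RPMI 1640 at densities in the linear growth range and incubated in 384-well plates for 72 h at 37 °C under 5% CO2. Doses were five tenfold steps from 1 to 10,000 nM in duplicate, and luminescent ATP viability was normalised to vehicle and to a positive control at 10 µM before four-parameter fitting.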

HL-60 [1] = system: HL-60
In short: as §1

KCL-22 = system: KCL-22
In short: as §1

BV-173 = system: BV-173
In short: as §1

MOLM-13 = system: MOLM-13
In short: as §1

HEL = system: HEL
In short: as §1

THP-1 = system: THP-1
In short: as §1

SHI-1 = system: SHI-1
In short: as §1

ML-2 = system: ML-2
In short: as §1

KG-1 = system: KG-1
In short: as §1

[2] = system: myeloid leukemia patient primary cells Pat.1; assay: cell viability (% survival relative to DMSO control); higher = less cytotoxic
In short: (§2)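 Thawed, Ficoll-purified mononuclear cells from AML or CML patients in RPMI 1640 with 10% FBS were seeded at 10,000 cells/well on 384-well plates pre-printed with 70 compounds at five tenfold concentrations, 1–10,000 nM, in duplicate, for 72 h. Viability was read by CellTiter-Glo and normalised to DMSO and 10 μM proteasome-inhibitor wells. Where given, area under the curve came from four-parameter log-logistic fits (drc, PharmacoGx R packages).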

[3] = system: myeloid leukemia patient primary cells Pat.8; assay: as above
In short: as §2

[4] = system: myeloid leukemia patient primary cells Pat.5; assay: as above
In short: as §2

[5] = system: myeloid leukemia patient primary cells Pat.6; assay: as above
In short: as §2

[6] = system: myeloid leukemia patient primary cells Pat.14; assay: as above
In short: as §2

[7] = system: myeloid leukemia patient primary cells Pat.7; assay: as above
In short: as §2

[8] = system: myeloid leukemia patient primary cells Pat.13; assay: as above
In short: as §2

[9] = system: myeloid leukemia patient primary cells Pat.2; assay: as above
In short: as §2

[10] = system: myeloid leukemia patient primary cells Pat.3; assay: as above
In short: as §2

[11] = system: myeloid leukemia patient primary cells Pat.10; assay: as above
In short: as §2

[12] = system: myeloid leukemia patient primary cells Pat.12; assay: as above
In short: as §2

[13] = system: myeloid leukemia patient primary cells Pat.4; assay: as above
In short: as §2

[14] = system: myeloid leukemia patient primary cells Pat.9; assay: as above
In short: as §2

[15] = system: myeloid leukemia patient primary cells Pat.11; assay: as above
In short: as §2

[16] = system: myeloid leukemia patient primary cells Pat.15; assay: as above
In short: as §2

HL-60 [17] = assay: area under dose-response curve (viability, 1 nM-10 uM) (fraction (0-1)); higher = more sensitive
In short: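 A rescreen of the full library used HL-60 cells in RPMI 1640 with 10% FBS on 384-well plates, run in duplicate at five tenfold concentrations (1–10,000 nM). Each screen included DMSO or 100 nM of one of three metabolic inhibitors and ran 72 h at 37 °C, 5% CO2. CellTiter-Glo viability was scaled between DMSO and 10 μM proteasome-inhibitor wells. Any area under the curve comes from four-parameter log-logistic fits with drc and PharmacoGx.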

C[C@H](NC(=O)c1sccc1OCc1ccc(Cl)cc1)c1ccccc1
Conditions | IC50 (cell viability) [µM]
BV-173 | > 10
HEL | > 10
HL-60 [1] | 0.751
KCL-22 | > 10
KG-1 | > 10
LAMA-84 | > 10
ML-2 | > 10
MOLM-13 | > 10
SHI-1 | > 10
THP-1 | > 10

Conditions | area under dose-response curve, co-treatment: AZD3965 100 nM | area under dose-response curve, co-treatment: DMSO vehicle | area under dose-response curve, co-treatment: GSK2194069 100 nM | area under dose-response curve, co-treatment: pictilisib 100 nM | cell viability, 1 nM [%] | cell viability, 10 nM [%] | cell viability, 100 nM [%] | cell viability, 1000 nM [%] | cell viability, 10000 nM [%]
HL-60 [17] | < 0.0301 | < 0.0301 | < 0.0301 | < 0.0301 | – | – | – | – | –
[2] | – | – | – | – | 94.5 | 95.9 | 91 | > 100 | 54
[3] | – | – | – | – | 72.9 | 85.9 | 87.7 | > 100 | 61
[4] | – | – | – | – | 88.1 | 68.7 | 71.7 | 19.4 | 4.74
[5] | – | – | – | – | > 100 | 98.1 | 99.6 | 91.5 | 35.7
[6] | – | – | – | – | 88.5 | 88 | 99.3 | 99.3 | 1.72
[7] | – | – | – | – | 93.1 | 85.3 | 90.3 | 40.2 | < 0
[8] | – | – | – | – | 92.9 | 89 | 92.3 | 91.7 | 43.4
[9] | – | – | – | – | > 100 | 95.8 | > 100 | 97.8 | 64
[10] | – | – | – | – | 91.3 | 83.9 | 96.3 | 96.2 | 1.02
[11] | – | – | – | – | 81.9 | 67.4 | 73.5 | 80.2 | < 0
[12] | – | – | – | – | 90 | 98.4 | 91.8 | > 100 | 63.8
[13] | – | – | – | – | 94.6 | 93.6 | 94.1 | 83.3 | 39.9
[14] | – | – | – | – | 84.8 | 59.2 | 79 | 59.2 | 1.24
[15] | – | – | – | – | 93 | > 100 | > 100 | 97.6 | > 100
[16] | – | – | – | – | 92.7 | 95.6 | 97.7 | 92.2 | 81.3
